Reference: ChEMBL document CHEMBL3297661, “1-Substituted-5-[(3,5-dinitrobenzyl)sulfanyl]-1H-tetrazoles and their isosteric analogs: A new class of selective antitubercular agents active against drug-susceptible and multidrug-resistant mycobacteria” (Eur J Med Chem, 2014)
pIC50: −log10 of the molar value. Values after ≈ are worked out from the molar mass of the structure shown.

Experiments:
[1] = test system: Candida tropicalis; assay: Antifungal activity against Candida tropicalis 156 after 48 hrs by broth microdilution method; format: functional; details: Candida tropicalis, 156, 48 h
[2] = test system: Candida albicans; assay: Antifungal activity against Candida albicans ATCC 44859 after 24 hrs by broth microdilution method; format: functional; details: ATCC 44859, 24 h
[3] = test system: Nakaseomyces glabratus; assay: Antifungal activity against Candida glabrata 20/I after 48 hrs by broth microdilution method; format: functional
[4] = Cytotoxicity against human HuH7 cells assessed as cell viability at 30 uM after 48 hrs by MTT assay; format: cell-based, Huh-7; details: read-out: Activity
[5] = test system: Pichia kudriavzevii; assay: Antifungal activity against Candida krusei E28 after 48 hrs by broth microdilution method; format: functional; details: E28, 48 h
[6] = test system: Mycobacterium kansasii; assay: Antimycobacterial activity against Mycobacterium kansasii 6509/96 after 14 days by micromethod; format: functional; details: 6509/96, 336 h
[7] = Cytotoxicity against MDCK2 cells assessed as reduction in cell viability after 48 hrs by MTT assay; format: cell-based; details: Canis lupus familiaris, MDCK-II
[8] = test system: Mycobacterium kansasii; assay: Antimycobacterial activity against Mycobacterium kansasii 6509/96 after 7 days by micromethod; format: functional; details: 6509/96, 168 h
[9] = test system: Pseudomonas aeruginosa; assay: Antibacterial activity against Pseudomonas aeruginosa ATCC 9027 after 24 hrs by broth microdilution method; format: functional; details: ATCC 9027, 24 h
[10] = test system: Mycobacterium kansasii; assay: Antimycobacterial activity against Mycobacterium kansasii CNCTC My 235/80 after 7 days by micromethod; format: functional; details: CNCTC My 235/80, 168 h
[11] = test system: Enterococcus faecalis; assay: Antibacterial activity against Enterococcus faecalis J 14365/08 after 48 hrs by broth microdilution method; format: functional; details: J 14365/08, 48 h
[12] = test system: HepG2; assay: Cytotoxicity against human HepG2 cells assessed as reduction in cell viability after 48 hrs by MTT assay; format: cell-based; details: HepG2, 48 h
[13] = test system: Pseudomonas aeruginosa; assay: Antibacterial activity against Pseudomonas aeruginosa ATCC 9027 after 48 hrs by broth microdilution method; format: functional; details: ATCC 9027, 48 h
[14] = test system: Mycobacterium kansasii; assay: Antimycobacterial activity against Mycobacterium kansasii 6509/96 after 21 days by micromethod; format: functional; details: 6509/96, 504 h
[15] = test system: Trichophyton mentagrophytes; assay: Antifungal activity against Trichophyton mentagrophytes 445 after 120 hrs by broth microdilution method; format: functional, organism-based; details: Trichophyton mentagrophytes, 445, 120 h
[16] = test system: Staphylococcus aureus; assay: Antibacterial activity against methicillin-resistant Staphylococcus aureus H 5996/08 after 24 hrs by broth microdilution method; format: functional; details: H 5996/08, 24 h
[17] = test system: HeLa; assay: Cytotoxicity against human HeLa cells assessed as reduction in cell viability after 48 hrs by MTT assay; format: cell-based
[18] = test system: Trichosporon asahii; assay: Antifungal activity against Trichosporon asahii 1188 after 24 hrs by broth microdilution method; format: functional; details: Trichosporon asahii, 1188, 24 h
[19] = test system: Staphylococcus epidermidis; assay: Antibacterial activity against Staphylococcus epidermidis H 6966/08 after 24 hrs by broth microdilution method; format: functional; details: H 6966/08, 24 h
[20] = test system: Staphylococcus aureus; assay: Antibacterial activity against Staphylococcus aureus ATCC 6538 after 24 hrs by broth microdilution method; format: functional; details: ATCC 6538, 24 h
[21] = test system: Klebsiella pneumoniae; assay: Antibacterial activity against Klebsiella pneumoniae D 11750/08 after 48 hrs by broth microdilution method; format: functional; details: D 11750/08, 48 h
[22] = test system: Lichtheimia corymbifera; assay: Antifungal activity against Absidia corymbifera 272 after 48 hrs by broth microdilution method; format: functional, organism-based; details: Lichtheimia corymbifera, 272, 48 h
[23] = Cytotoxicity against human HeLa cells assessed as cell viability at 30 uM after 48 hrs by MTT assay; format: cell-based; details: read-out: Activity
[24] = test system: Pichia kudriavzevii; assay: Antifungal activity against Candida krusei E28 after 24 hrs by broth microdilution method; format: functional; details: E28, 24 h
[25] = test system: Aspergillus fumigatus; assay: Antifungal activity against Aspergillus fumigatus 231 after 48 hrs by broth microdilution method; format: functional, organism-based; details: Aspergillus fumigatus, 231, 48 h
[26] = test system: Candida tropicalis; assay: Antifungal activity against Candida tropicalis 156 after 24 hrs by broth microdilution method; format: functional; details: Candida tropicalis, 156, 24 h
[27] = Cytotoxicity against human HepG2 cells assessed as cell viability at 30 uM after 48 hrs by MTT assay; format: cell-based; details: read-out: Activity
[28] = test system: Mycobacterium avium; assay: Antimycobacterial activity against Mycobacterium avium CNCTC My 330/88 after 21 days by micromethod; format: functional; details: CNCTC My 330/88, 504 h
[29] = test system: Enterococcus faecalis; assay: Antibacterial activity against Enterococcus faecalis J 14365/08 after 24 hrs by broth microdilution method; format: functional; details: J 14365/08, 24 h
[30] = test system: Nakaseomyces glabratus; assay: Antifungal activity against Candida glabrata 20/I after 24 hrs by broth microdilution method; format: functional
[31] = test system: Klebsiella pneumoniae; assay: Antibacterial activity against extended spectrum beta-lactamase producing Klebsiella pneumoniae J 14368/08 after 48 hrs by broth microdilution method; format: functional; details: J 14368/08, 48 h
[32] = test system: Staphylococcus epidermidis; assay: Antibacterial activity against Staphylococcus epidermidis H 6966/08 after 48 hrs by broth microdilution method; format: functional; details: H 6966/08, 48 h
[33] = test system: Mycobacterium avium; assay: Antimycobacterial activity against Mycobacterium avium CNCTC My 330/88 after 14 days by micromethod; format: functional; details: CNCTC My 330/88, 336 h
[34] = test system: Mycobacterium kansasii; assay: Antimycobacterial activity against Mycobacterium kansasii CNCTC My 235/80 after 21 days by micromethod; format: functional; details: CNCTC My 235/80, 504 h
[35] = test system: Lichtheimia corymbifera; assay: Antifungal activity against Absidia corymbifera 272 after 24 hrs by broth microdilution method; format: functional, organism-based; details: Lichtheimia corymbifera, 272, 24 h
[36] = test system: Staphylococcus aureus; assay: Antibacterial activity against methicillin-resistant Staphylococcus aureus H 5996/08 after 48 hrs by broth microdilution method; format: functional; details: H 5996/08, 48 h
[37] = test system: Klebsiella pneumoniae; assay: Antibacterial activity against Klebsiella pneumoniae D 11750/08 after 24 hrs by broth microdilution method; format: functional; details: D 11750/08, 24 h
[38] = test system: Klebsiella pneumoniae; assay: Antibacterial activity against extended spectrum beta-lactamase producing Klebsiella pneumoniae J 14368/08 after 24 hrs by broth microdilution method; format: functional; details: J 14368/08, 24 h
[39] = test system: Mycobacterium tuberculosis; assay: Antimycobacterial activity against Mycobacterium tuberculosis CNCTC My 331/88 after 21 days by micromethod; format: functional; details: CNCTC My 331/88, 504 h
[40] = Cytotoxicity against MDCK2 cells assessed as cell viability at 30 uM after 48 hrs by MTT assay; format: cell-based, Canis lupus familiaris, MDCK-II; details: dog, read-out: Activity
[41] = test system: Mycobacterium kansasii; assay: Antimycobacterial activity against Mycobacterium kansasii CNCTC My 235/80 after 14 days by micromethod; format: functional; details: CNCTC My 235/80, 336 h
[42] = test system: Escherichia coli; assay: Antibacterial activity against Escherichia coli ATCC 8739 after 48 hrs by broth microdilution method; format: functional; details: ATCC 8739, ATCC 8739, 48 h
[43] = test system: Staphylococcus aureus; assay: Antibacterial activity against Staphylococcus aureus ATCC 6538 after 48 hrs by broth microdilution method; format: functional; details: ATCC 6538, 48 h
[44] = test system: Mycobacterium tuberculosis; assay: Antimycobacterial activity against Mycobacterium tuberculosis CNCTC My 331/88 after 14 days by micromethod; format: functional; details: CNCTC My 331/88, 336 h
[45] = test system: Candida albicans; assay: Antifungal activity against Candida albicans ATCC 44859 after 48 hrs by broth microdilution method; format: functional; details: ATCC 44859, 48 h
[46] = test system: Aspergillus fumigatus; assay: Antifungal activity against Aspergillus fumigatus 231 after 24 hrs by broth microdilution method; format: functional, organism-based; details: Aspergillus fumigatus, 231, 24 h
[47] = test system: Trichosporon asahii; assay: Antifungal activity against Trichosporon asahii 1188 after 48 hrs by broth microdilution method; format: functional; details: Trichosporon asahii, 1188, 48 h
[48] = test system: Escherichia coli; assay: Antibacterial activity against Escherichia coli ATCC 8739 after 24 hrs by broth microdilution method; format: functional; details: ATCC 8739, ATCC 8739, 24 h
[49] = Cytotoxicity against human HuH7 cells assessed as reduction in cell viability after 48 hrs by MTT assay; format: cell-based; details: Huh-7, 48 h
[50] = test system: Trichophyton mentagrophytes; assay: Antifungal activity against Trichophyton mentagrophytes 445 after 72 hrs by broth microdilution method; format: functional, organism-based; details: Trichophyton mentagrophytes, 445, 72 h

SMILES: O=[N+]([O-])c1cc(CSc2nnnn2Cc2ccccc2)cc([N+](=O)[O-])c1
- IC80 [1]: > 500 µM
- IC80 [2]: > 500 µM
- IC80 [3]: > 500 µM
- viability at 48 h, 30 µM [4]: 112%
- IC80 [5]: > 500 µM
- MIC [6]: 4 µM (≈ 1.49 µg/mL)
- pIC50 [7]: < 4.52
- MIC [8]: 2 µM (≈ 0.745 µg/mL)
- IC95 [9]: > 500 µM
- MIC [10]: 2 µM (≈ 0.745 µg/mL)
- IC95 [11]: > 500 µM
- pIC50 [12]: < 4.52
- IC95 [13]: > 500 µM
- MIC [14]: 4 µM (≈ 1.49 µg/mL)
- pIC50 [15]: < 3.30
- IC95 [16]: > 500 µM
- pIC50 [17]: < 4.52
- IC80 [18]: > 500 µM
- IC95 [19]: > 500 µM
- IC95 [20]: > 500 µM
- IC95 [21]: > 500 µM
- pIC50 [22]: < 3.30
- viability at 48 h, 30 µM [23]: 91%
- IC80 [24]: > 500 µM
- pIC50 [25]: < 3.30
- IC80 [26]: > 500 µM
- viability at 48 h, 30 µM [27]: 94%
- MIC [28]: 250 µM (≈ 93.1 µg/mL)
- IC95 [29]: > 500 µM
- IC80 [30]: > 500 µM
- IC95 [31]: > 500 µM
- IC95 [32]: > 500 µM
- MIC [33]: 250 µM (≈ 93.1 µg/mL)
- MIC [34]: 8 µM (≈ 2.98 µg/mL)
- pIC50 [35]: < 3.30
- IC95 [36]: > 500 µM
- IC95 [37]: > 500 µM
- IC95 [38]: > 500 µM
- MIC [39]: 2 µM (≈ 0.745 µg/mL)
- viability at 48 h, 30 µM [40]: 87%
- MIC [41]: 8 µM (≈ 2.98 µg/mL)
- IC95 [42]: > 500 µM
- IC95 [43]: > 500 µM
- MIC [44]: 1 µM (≈ 0.372 µg/mL)
- IC80 [45]: > 500 µM
- pIC50 [46]: < 3.30
- IC80 [47]: > 500 µM
- IC95 [48]: > 500 µM
- pIC50 [49]: < 4.52
- pIC50 [50]: < 3.30

SMILES: O=[N+]([O-])c1cc(C[Se]c2nnnn2C2CCCCC2)cc([N+](=O)[O-])c1
- IC80 [1]: > 500 µM
- IC80 [2]: > 500 µM
- IC80 [3]: > 500 µM
- viability at 48 h, 30 µM [4]: 125%
- IC80 [5]: > 500 µM
- MIC [6]: 4 µM (≈ 1.65 µg/mL)
- pIC50 [7]: 4.72
- MIC [8]: 2 µM (≈ 0.823 µg/mL)
- IC95 [9]: > 500 µM
- MIC [10]: 1 µM (≈ 0.411 µg/mL)
- IC95 [11]: > 500 µM
- pIC50 [12]: < 4.52
- IC95 [13]: > 500 µM
- MIC [14]: 4 µM (≈ 1.65 µg/mL)
- pIC50 [15]: < 3.30
- IC95 [16]: > 500 µM
- pIC50 [17]: < 4.52
- IC80 [18]: > 500 µM
- IC95 [19]: > 500 µM
- IC95 [20]: > 500 µM
- IC95 [21]: > 500 µM
- pIC50 [22]: < 3.30
- viability at 48 h, 30 µM [23]: 66%
- IC80 [24]: > 500 µM
- pIC50 [25]: < 3.30
- IC80 [26]: > 500 µM
- viability at 48 h, 30 µM [27]: 87%
- MIC [28]: 32 µM (≈ 13.2 µg/mL)
- IC95 [29]: > 500 µM
- IC80 [30]: > 500 µM
- IC95 [31]: > 500 µM
- IC95 [32]: > 500 µM
- MIC [33]: 32 µM (≈ 13.2 µg/mL)
- MIC [34]: 2 µM (≈ 0.823 µg/mL)
- pIC50 [35]: < 3.30
- IC95 [36]: > 500 µM
- IC95 [37]: > 500 µM
- IC95 [38]: > 500 µM
- MIC [39]: 2 µM (≈ 0.823 µg/mL)
- viability at 48 h, 30 µM [40]: 7%
- MIC [41]: 1 µM (≈ 0.411 µg/mL)
- IC95 [42]: > 500 µM
- IC95 [43]: > 500 µM
- MIC [44]: 1 µM (≈ 0.411 µg/mL)
- IC80 [45]: > 500 µM
- pIC50 [46]: < 3.30
- IC80 [47]: > 500 µM
- IC95 [48]: > 500 µM
- pIC50 [49]: < 4.52
- pIC50 [50]: < 3.30
